In patent US6080780A, “Use of nitroflavonoids for the treatment of anxiety” (University of Strathclyde, priority 1995, dated 2000):
Where “and” joins values, the source holds several entries; their conditions need not be identical. Identical values can stand only once. Entries after “also recorded” stand apart in the source; their conditions may differ. Like-named read-outs stand apart in the source and are kept apart here.

Legend:
mice = assay: Horizontal wire test in mice; assay type: in vivo, male Swiss mice
Description: (§1) Adult male Wistar rats weighing 250 g were used for biochemical experiments. Adult male Swiss male weighing 25-30 g were used for pharmacological assays except for inhibitory avoidance and tail flick tests were done in rats. Animals were housed in a controlled environment, with free access to food and water and maintained on a 12 h/12 h day/night cycle.
This test was carried out as previously described (Viola et al., 1994; Wolfman et al., 1994; Viola et al., 1995). The test took place after two trials, performed at 5 min intervals. A myorelaxant drug will impair mice to grasp the wire (Bonetti et al., 1982). The effect of DNF )1 mg/kg) on DZ-induced myorelaxation was also determined.

rats = assay: Inhibitory avoidance test in rats; assay type: in vivo, rat
Description: This test was performed according to Izquierdo et al., (1990). The training apparatus was a 50×25×25 cm acrylic box with a frontal glass panel and a floor made of parallel 1 mm caliber bronze bars spaced […] apart. A 5 cm high, 7 cm wide formica platform was placed on the loft extreme of the box. Rats were placed on the platform and their latency to step-down placing their four paws on the grid was measured. On stepping-down they received a 0.35 mA, 2 s scrambled footshock and were withdrawn from the box (training session). The test session was carried out 20 h later and was similar to the training session in all respects except that the footshock was omitted. Test step-down latency (to a ceiling of 180 s) was taken as a measure of retention of inhibitory avoidance (Izquierdo et al., 1990).

[1] = target: T1, central benzodiazepine receptor (Rattus norvegicus, UniProt P18508+P62813); assay: [3H]-FNZ binding to crude synaptosomal membranes from rat CNS regions; parameters: washed crude synaptosomal membranes from rat cerebral cortex; from tissue; host or cells: Wistar rat cerebral cortex, cerebellum, hippocampus, striatum, spinal cord (crude synaptosomal membranes); species or system rat (Wistar); details: Ki, [3H]-FNZ binding, rat cerebellum
Description: as §1
Displacement curves were performed using [^3 ]-FNZ or [^3 H]-zolpidem ([^3 H]-ZOLP) as radioligands in washed crude synaptosomal membranes from rat cerebral cortex, cerebellum, hippocampus, striatum or spinal cord. Membrane preparations were carried out according to Medina et al. (1990). Briefly, brains were rapidly dissected out on ice and the different structures were homogenized in 10 volumes of 0.32 M sucrose and centrifuged at 900×g for 10 min. […]
For [^3 H]-FNZ (84 Ci/mmol, NEN) displacement curves, different concentrations of DNF (0.3 nM to 1 μM) were added to 0.3 mg membrane protein suspended in 1 ml of 25 mM Tris HCl buffer in presence of 0.6 nM of the radioligand. […] Nonspecific binding (<5%) was determined in parallel incubations with 10 μM FNZ (Hoffmann-La Roche). […] The assays were determined by filtration under vacuum through Whatman GF/A glass fiber filters, and two washes with 3 ml each of incubation medium. Filters were dried and counted after the addition of 5 ml 2,5-diphenyl-oxazole (PPO)-xylene as scintillation fluid.

[2] = system: serotonin (5-HTlλ) receptors; assay: [3H]-8-OH-DPAT binding; details: 20 μM; data not shown
Description: Additional binding studies were performed as described elsewhere: [^3 ]-prazosin binding for α1 adrenergic receptors (Medina et al., 1984), [^3 H]-dihidroalprenolol binding for β adrenergic receptors (Medina et al. 1984), [^3 H]-quinuclinidyl benzylate binding for muscarinic cholinergic receptors (Jerusalinksy et al., 1983), [^3 H]-muscimol binding for GABAλ receptors (Medina et al., 1983) and [^3 H]-8-Hydroxydipropylaminotetralin ([^3 H]--OH--DPAT) binding for serotonin (5-HTlλ) receptors (Nenonene et al., 1984).

[3] = target: T2, central benzodiazepine receptor type I (Rattus norvegicus, UniProt P18508+P62813); assay: [3H]-zolpidem binding to rat synaptosomal membranes; parameters: species or system rat (Wistar); details: read-out: Ki, [3H]-ZOLP binding
T2 construct: washed crude synaptosomal membranes from rat cerebral cortex; from tissue; host or cells: Wistar rat cerebral cortex, striatum, cerebellum (crude synaptosomal membranes)
Description: as §1
Displacement curves were performed using [^3 ]-FNZ or [^3 H]-zolpidem ([^3 H]-ZOLP) as radioligands in washed crude synaptosomal membranes from rat cerebral cortex, cerebellum, hippocampus, striatum or spinal cord. Membrane preparations were carried out according to Medina et al. (1990). Briefly, brains were rapidly dissected out on ice and the different structures were homogenized in 10 volumes of 0.32 M sucrose and centrifuged at 900×g for 10 min. The resulting supernatant was centrifuged at 100,000×g for 30 min and the pellet washed twice in 25 mM Tris HCl buffer pH 7.4 at 100,000×g for 30 min, and stored at -20° C. until used.
For [^3 H]-ZOLP (50.8 Ci/mmol, NEN) binding assays we used the technique of Arbilla et al. (1986), slightly modified as follows: displacement curves were done with 1 nM of the radioligand and 10 μM zolpidem to determine the nonspecific binding (<15%). The incubation of the samples (0.4 mg protein in 1 ml of 50 mM Tris HCl buffer, pH 7.4, 120 mM NaCl, 5 mM KCl) was carried out at 4' C. during 30 min. […]

[4] = target: T1, central benzodiazepine receptor; assay: Autoradiographic [3H]-FNZ displacement on rat brain sections; assay type: binding, rat (Wistar); parameters: Wistar rats were decapitated and brains rapidly removed; from tissue; host or cells: Wistar rat brain sagittal sections
Description: Wistar rats were decapitated and brains rapidly removed. Sagittal sections (15 μm in thickness) were prepared at -20° C. using a microtome-cryostat. The tissue slices were kept frozen at -70° C. until used. For DNF displacement curves to [^3 H]--FNZ binding (0.65 nM), tissue sections were incubated for 60 min at 4° C. in 25 mM Tris HCl buffer, pH 7.4, in presence of different concentrations of DNF (1-600 nM). For non-specific binding we used 10 μM FNZ. The incubation was terminated by rinsing the sections for two min in cold buffer. Sections were briefly dipped in cold distilled water and dried rapidly under a stream of cold air (Niddam et al., 1987).
Autoradiograms were generated by apposing the slide-mounted tissue section to tritium-sensitive film (Hyperfilm Amersham) in a light-proof X-ray cassette at 4° C. for two weeks.
The optical densities from different brain regions were converted first to radioactive units and then to fmol/mm^2 using the [^3 H] standards on the film with the aid of a computerized image densitometric analysis system (MCID 4.02). The values were normalized and the Ki values were determined using a computerized program (Graph-Pad Prism) Bernabeu et al., 1995; Cammarota et al., 1995).

T1 sequence (P62813 28-455): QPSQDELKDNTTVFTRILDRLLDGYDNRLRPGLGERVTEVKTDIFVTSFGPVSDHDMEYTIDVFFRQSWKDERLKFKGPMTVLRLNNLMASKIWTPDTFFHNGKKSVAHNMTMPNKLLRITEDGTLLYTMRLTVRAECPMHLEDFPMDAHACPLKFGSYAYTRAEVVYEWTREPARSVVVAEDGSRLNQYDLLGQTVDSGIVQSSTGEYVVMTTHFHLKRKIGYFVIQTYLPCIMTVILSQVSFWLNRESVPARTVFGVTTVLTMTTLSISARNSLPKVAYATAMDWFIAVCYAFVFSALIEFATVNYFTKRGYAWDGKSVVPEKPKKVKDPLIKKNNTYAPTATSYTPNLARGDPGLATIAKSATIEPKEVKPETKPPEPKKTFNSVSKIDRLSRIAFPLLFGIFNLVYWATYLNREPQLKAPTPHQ
T1 sequence (P18508 39-466): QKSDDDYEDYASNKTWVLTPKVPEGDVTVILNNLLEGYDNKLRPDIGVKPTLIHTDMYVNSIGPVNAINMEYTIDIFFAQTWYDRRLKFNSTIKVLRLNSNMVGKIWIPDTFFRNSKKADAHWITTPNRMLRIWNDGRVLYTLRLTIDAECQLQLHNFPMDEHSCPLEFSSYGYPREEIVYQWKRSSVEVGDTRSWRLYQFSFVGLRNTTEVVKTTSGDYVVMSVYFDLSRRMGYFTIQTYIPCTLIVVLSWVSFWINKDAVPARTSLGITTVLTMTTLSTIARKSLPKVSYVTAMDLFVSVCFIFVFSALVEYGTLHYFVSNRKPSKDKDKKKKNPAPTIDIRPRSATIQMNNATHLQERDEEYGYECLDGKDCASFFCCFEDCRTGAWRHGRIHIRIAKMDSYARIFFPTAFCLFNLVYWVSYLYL
T1 sequence (P63138 26-474 partner): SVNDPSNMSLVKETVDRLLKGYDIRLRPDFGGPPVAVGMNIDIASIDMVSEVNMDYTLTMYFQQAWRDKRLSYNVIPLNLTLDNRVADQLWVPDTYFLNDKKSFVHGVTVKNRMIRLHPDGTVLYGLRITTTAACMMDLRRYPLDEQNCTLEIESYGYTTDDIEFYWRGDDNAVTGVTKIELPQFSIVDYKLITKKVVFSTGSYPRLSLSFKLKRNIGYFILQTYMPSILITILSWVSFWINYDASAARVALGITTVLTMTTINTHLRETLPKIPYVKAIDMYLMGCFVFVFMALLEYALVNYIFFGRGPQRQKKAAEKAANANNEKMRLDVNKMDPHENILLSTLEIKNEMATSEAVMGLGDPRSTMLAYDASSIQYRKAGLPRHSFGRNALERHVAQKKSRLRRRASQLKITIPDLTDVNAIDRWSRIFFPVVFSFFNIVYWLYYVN
T2 sequence (P62813 28-455): as the sequence (P62813 28-455) above
T2 sequence (P18508 39-466): as the sequence (P18508 39-466) above
T2 sequence (P63138 25-474 partner limits assumed): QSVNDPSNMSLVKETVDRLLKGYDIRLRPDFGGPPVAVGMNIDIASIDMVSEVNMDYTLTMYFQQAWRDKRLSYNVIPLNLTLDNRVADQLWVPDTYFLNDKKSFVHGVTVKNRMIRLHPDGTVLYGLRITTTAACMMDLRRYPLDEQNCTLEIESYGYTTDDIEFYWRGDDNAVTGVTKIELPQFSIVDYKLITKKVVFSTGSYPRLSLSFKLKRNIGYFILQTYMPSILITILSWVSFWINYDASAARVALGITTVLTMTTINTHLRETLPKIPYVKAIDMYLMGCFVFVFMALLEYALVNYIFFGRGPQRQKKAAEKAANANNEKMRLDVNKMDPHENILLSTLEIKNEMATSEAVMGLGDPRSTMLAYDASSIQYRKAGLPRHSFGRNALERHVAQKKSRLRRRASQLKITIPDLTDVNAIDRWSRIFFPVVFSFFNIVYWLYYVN

## O=c1cc(-c2cccc([N+](=O)[O-])c2)oc2ccc([N+](=O)[O-])cc12 [Compound (II), 6,3'-dinitroflavone]
mice; mice, DNF plus DZ (1 mg/kg), listed as DNF
  effect on DZ-induced myorelaxation: counteracted; also recorded: able to reverse the myorelaxant effect of the full agonist DZ; also recorded: prevents the muscle relaxation effect of a full benzodiazepine receptor agonist
mice; mice, i.p., DNF plus DZ (1 mg/kg), p<0.001
  animals showing myorelaxant effect, DNF plus DZ: 2 animals out of 15
mice; mice, i.p., up to 10 mg/kg
  percentage of mice grasping the wire: did not affect the percentage of mice grasping
mice; up to 10 mg/kg
  myorelaxant effects: did not evidence anticonvulsant, myorelaxant
rats; rats, i.p., 100 μg/kg, pre or posttraining
  test session performance of inhibitory avoidance: no effect
rats; up to 10 mg/kg as worded
  amnesic effects: did not evidence anticonvulsant, myorelaxant, amnesic
[1]
  Ki: 17 nM and 17.2 nM
[2]
  displacement of [3H]-8-HO-DPAT binding: did not displace
[3]; rat cerebellum, n=3
  Ki: 17 ± 1.5 nM
[3]; rat cerebral cortex, n=5
  Ki: 17.2 ± 3.7 nM
[4]
  Ki: 17.2 ± 2.3 nM
